Reference: patent US11667638B2, “4-substitued cytisine analogues” (The University of Bristol, priority 2016, dated 2023)

Experiments:
(α4)3(β2)2 nAChRs = (α4)3(β2)2 nAChRs (Homo sapiens (Human), UniProt P17787+P43681); test: Maximal gating efficacy on (α4)3(β2)2 nAChRs in Xenopus oocytes, two electrode voltage clamp; type: cell-based; details: (α4)3(β2)2, low sensitivity stoichiometry; maximal current relative to 1 mM ACh
Description: (§1) Compounds of the invention were tested for effects on the function of human α4β2, α3β4 and α7 nicotinic acetylcholine receptors (nAChRs) expressed heterologously in Xenopus oocytes. […] Expression in oocytes was obtained as follows: pCI (Promega, UK) plasmid containing human α4, β2, β4 or α7 complementary DNA were injected as previously described (Moroni et al., 2006). To express (α4)3(β2)2 nACh receptors, a mixture of 10α4:1β2 cDNAs was injected into the nucleus of oocytes, whereas for (α4)2(β2)3 receptors the cDNA ratio injected was 1α4:10β2.
(§2) Functional studies: Recordings were performed manually using a Geneclamp amplifier (Molecular Devices, USA) or using an automated HiClamp system. In both cases the oocytes were impaled with two electrodes filled with 3 M KCl and the cells were held at −60 mV throughout the experiments.
(§3) Oocyte isolation and two-electrode voltage-clamp recordings on oocytes were carried out as previously described (Moroni et al., 2006; Carbone et al., 2009). […] A minimum interval of 5 min was allowed between agonist applications to ensure reproducible recordings. Oocytes were exposed to increasing concentrations of the compounds until no further increases in the response amplitude were obtained. This concentration was taken as the concentration that causes maximal responses on the receptors tested. The data summarised in Tables 1-4 were obtained from at least 5 experiments carried out on oocytes obtained from at least three different donors.
Maximal gating efficacy of the compounds: The concentration of the compounds of the invention causing maximal activation of the (α4)3(β2)2 nAChRs expressed heterologously in Xenopus oocytes was determined using two electrode voltage clamping.

Rat α7 = Rat α7 (Rattus norvegicus (Rat), UniProt Q05941); type: binding; details: range printed after the value
Description: (§4) The ligand binding data were analyzed by means of nonlinear regression using Prism version 5 (GraphPad Software, Inc., La Jolla, Calif.). The Ki values were calculated from the experimental IC50 values using the Cheng-Prusoff equation for a single population of competitive sites: Ki=IC50/[1+(L/Kd)], where L is the concentration of radioligand used in each experiment and the Kd values were determined by saturation binding experiment. All of the assays were performed in duplicate and repeated at least two-three times.

Human α7 = Human α7 (Homo sapiens (Human), UniProt P36544); type: binding; details: read-out: Human α7 K(i)
α3β4 nAChRs = α3β4 nAChRs (Homo sapiens (Human), UniProt P30926+P32297); test: Maximal gating efficacy on α3β4 nAChRs in Xenopus oocytes, two electrode voltage clamp; type: cell-based; details: maximal current relative to 1 mM ACh
Description: as §1, §2, §3
Maximal gating efficacy of the compounds on α3β4 nAChRs: The concentration of the compounds causing maximal activation of α3β4 nAChRs expressed heterologously in Xenopus oocytes was determined using two electrode voltage clamping.

(α4)2(β2)3 nAChRs = (α4)2(β2)3 nAChRs (Homo sapiens (Human), UniProt P17787+P43681); test: Maximal gating efficacy on (α4)2(β2)3 nAChRs in Xenopus oocytes, two electrode voltage clamp; type: cell-based; details: (α4)2(β2)3, high sensitivity receptors; maximal current relative to 1 mM ACh
Description: as §1, §2, §3
Maximal gating efficacy of compounds on (α4)2(β2)3 receptors (high sensitivity receptors): The concentration of the compounds causing maximal activation of the (α4)2(β2)3 nAChRs expressed heterologously in Xenopus oocytes was determined using two electrode voltage clamping.

α4β2 nAChR = α4β2 nAChR (Homo sapiens (Human), UniProt P17787+P43681); type: binding
Description: (§5) HEK 293 cells were grown in Dulbecco's modified Eagle medium supplemented with 10% fetal bovine serum, 1% L-Glutamine, 100 units/ml penicillin G, and 100 μg/streptomycin in a humidified atmosphere containing 10% CO2. The cDNAs encoding α3 and β4 or α4 and β2 (were transfected into the HEK 293 cells at 30% confluency). The cell transfections were carried out in 100 mm Petri dishes using 30 μL of JetPEI™ (Polypus, France) (1 mg/ml, pH 7.2) and 3 μg of each cDNA. After 24 h transfection, the cells were collected, washed with PBS by centrifugation, and used for binding analysis.
(§6) [^3H]-epibatidine saturation binding experiments to HEK transfected α3β4 or α4β2 receptors were performed by means of overnight incubation at 4° C. at concentrations ranging from 0.005 to 1 nM in a buffer containing 50 mM Tris-HCl, pH 7, 150 mM NaCl, 5 mM KCl, 1 mM MgCl2, 2.5 mM CaCl2 and 2 mg/ml BSA, in the presence (aspecific binding) or absence (total binding) of 100 nM cold epibatidine. Specific ligand binding was defined as total binding minus the binding in the presence of 100 nM cold epibatidine.
(§7) After incubation, the membranes of HEK cells transfected with α4β2* or α3β4 subtypes were washed by filtration on GFC filters with ice-cold PBS. The GFC filters were pre-soaked in polyethylenimine and filtered through an harvester apparatus. [^3H]-epibatidine binding was determined by means of liquid scintillation counting in a beta counter.
as §4

α3β4 nAChR = α3β4 nAChR (Homo sapiens (Human), UniProt P30926+P32297); type: binding; details: human α3β4 in HEK 293, 0.5 nM [3H]-epibatidine; range printed after the value
Description: as §5, §6, §7, §4

Sequence of α4β2 nAChR (P43681 29-627 limits assumed): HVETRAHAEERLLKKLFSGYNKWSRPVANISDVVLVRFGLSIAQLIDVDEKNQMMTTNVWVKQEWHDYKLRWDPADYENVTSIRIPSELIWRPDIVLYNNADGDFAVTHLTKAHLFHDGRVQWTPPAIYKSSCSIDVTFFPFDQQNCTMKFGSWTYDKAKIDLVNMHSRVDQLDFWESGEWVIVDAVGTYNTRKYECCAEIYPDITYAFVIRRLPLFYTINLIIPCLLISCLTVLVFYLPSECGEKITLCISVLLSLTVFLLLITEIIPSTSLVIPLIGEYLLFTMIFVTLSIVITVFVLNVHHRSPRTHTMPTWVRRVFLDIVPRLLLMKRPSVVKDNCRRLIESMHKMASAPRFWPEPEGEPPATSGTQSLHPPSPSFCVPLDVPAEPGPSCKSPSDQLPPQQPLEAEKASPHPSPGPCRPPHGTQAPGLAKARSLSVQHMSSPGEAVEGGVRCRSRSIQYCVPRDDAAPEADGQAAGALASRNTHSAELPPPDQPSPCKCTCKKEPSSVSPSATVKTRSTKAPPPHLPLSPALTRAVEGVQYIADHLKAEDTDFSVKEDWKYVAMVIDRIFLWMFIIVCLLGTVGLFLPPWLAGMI
Sequence of α4β2 nAChR (P17787 26-502 limits assumed): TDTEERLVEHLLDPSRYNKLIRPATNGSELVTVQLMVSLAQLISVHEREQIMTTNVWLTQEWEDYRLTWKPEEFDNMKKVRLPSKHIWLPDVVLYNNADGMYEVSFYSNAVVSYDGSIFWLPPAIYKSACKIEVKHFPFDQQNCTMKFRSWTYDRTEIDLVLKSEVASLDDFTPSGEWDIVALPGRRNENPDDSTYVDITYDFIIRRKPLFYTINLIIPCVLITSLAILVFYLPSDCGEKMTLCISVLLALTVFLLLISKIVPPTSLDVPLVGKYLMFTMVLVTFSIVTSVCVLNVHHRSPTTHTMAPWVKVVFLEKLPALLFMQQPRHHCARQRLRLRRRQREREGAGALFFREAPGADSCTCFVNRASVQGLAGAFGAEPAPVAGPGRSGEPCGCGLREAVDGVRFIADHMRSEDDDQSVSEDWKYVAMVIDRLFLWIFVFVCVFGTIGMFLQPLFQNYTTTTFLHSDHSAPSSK
Sequence of (α4)3(β2)2 nAChRs (P43681 29-627): as the sequence (P43681 29-627 limits assumed) above
Sequence of (α4)3(β2)2 nAChRs (P17787 26-502): as the sequence (P17787 26-502 limits assumed) above
Sequence of (α4)2(β2)3 nAChRs (P43681 29-627): as the sequence (P43681 29-627 limits assumed) above
Sequence of (α4)2(β2)3 nAChRs (P17787 26-502): as the sequence (P17787 26-502 limits assumed) above
Sequence of Human α7 (P36544 23-502 limits assumed): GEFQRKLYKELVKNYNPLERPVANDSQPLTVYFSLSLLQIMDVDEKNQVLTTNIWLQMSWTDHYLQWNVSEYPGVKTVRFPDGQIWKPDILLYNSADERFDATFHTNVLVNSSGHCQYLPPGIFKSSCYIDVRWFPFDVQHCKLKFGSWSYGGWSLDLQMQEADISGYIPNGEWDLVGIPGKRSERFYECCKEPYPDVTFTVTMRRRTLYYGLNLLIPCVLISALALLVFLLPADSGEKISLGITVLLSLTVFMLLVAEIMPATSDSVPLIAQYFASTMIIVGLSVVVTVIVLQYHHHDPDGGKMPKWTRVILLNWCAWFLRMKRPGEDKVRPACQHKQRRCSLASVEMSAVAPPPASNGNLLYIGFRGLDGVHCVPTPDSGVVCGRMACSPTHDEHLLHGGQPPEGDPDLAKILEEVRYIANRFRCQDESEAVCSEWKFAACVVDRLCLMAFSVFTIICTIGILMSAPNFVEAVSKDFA
Sequence of Rat α7 (Q05941 23-502 limits assumed): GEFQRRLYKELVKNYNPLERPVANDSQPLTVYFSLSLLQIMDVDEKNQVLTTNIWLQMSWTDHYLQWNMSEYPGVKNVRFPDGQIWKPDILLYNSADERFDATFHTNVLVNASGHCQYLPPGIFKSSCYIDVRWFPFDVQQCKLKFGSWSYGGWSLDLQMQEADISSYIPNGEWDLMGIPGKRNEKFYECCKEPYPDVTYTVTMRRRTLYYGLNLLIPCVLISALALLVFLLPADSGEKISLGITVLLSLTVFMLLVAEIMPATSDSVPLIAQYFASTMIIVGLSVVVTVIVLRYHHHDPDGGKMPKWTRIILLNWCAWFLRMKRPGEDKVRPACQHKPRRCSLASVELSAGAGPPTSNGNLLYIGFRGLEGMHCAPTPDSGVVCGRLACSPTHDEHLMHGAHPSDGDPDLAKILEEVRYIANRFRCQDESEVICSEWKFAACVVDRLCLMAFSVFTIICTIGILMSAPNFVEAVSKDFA
Sequence of α3β4 nAChR (P32297 32-505 limits assumed): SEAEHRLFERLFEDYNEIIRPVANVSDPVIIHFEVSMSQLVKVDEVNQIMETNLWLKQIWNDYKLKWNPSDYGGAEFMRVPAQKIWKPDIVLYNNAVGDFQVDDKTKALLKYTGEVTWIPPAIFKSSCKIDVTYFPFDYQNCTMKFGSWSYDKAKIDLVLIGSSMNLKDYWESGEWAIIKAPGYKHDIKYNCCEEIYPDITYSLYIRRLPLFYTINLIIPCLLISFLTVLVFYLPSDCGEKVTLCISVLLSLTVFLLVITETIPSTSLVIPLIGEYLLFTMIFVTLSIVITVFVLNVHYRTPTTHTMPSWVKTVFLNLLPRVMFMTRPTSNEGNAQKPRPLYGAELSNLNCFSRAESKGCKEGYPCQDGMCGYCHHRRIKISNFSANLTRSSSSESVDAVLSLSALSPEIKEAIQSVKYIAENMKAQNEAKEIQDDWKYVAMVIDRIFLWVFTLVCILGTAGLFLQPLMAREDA
Sequence of α3β4 nAChR (P30926 22-498 limits assumed): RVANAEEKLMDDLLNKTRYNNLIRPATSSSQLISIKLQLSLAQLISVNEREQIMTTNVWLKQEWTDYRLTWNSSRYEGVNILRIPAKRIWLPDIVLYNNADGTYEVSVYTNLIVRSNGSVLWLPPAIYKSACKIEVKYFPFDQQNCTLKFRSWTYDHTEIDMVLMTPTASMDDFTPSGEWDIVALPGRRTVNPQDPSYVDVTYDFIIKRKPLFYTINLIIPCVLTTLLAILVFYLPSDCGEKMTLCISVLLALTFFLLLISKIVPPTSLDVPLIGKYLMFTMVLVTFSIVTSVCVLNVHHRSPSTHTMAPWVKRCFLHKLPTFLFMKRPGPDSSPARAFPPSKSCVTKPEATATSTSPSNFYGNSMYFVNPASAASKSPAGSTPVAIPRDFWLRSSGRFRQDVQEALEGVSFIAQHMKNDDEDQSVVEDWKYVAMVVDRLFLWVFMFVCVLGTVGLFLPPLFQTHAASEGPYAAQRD
Sequence of α3β4 nAChRs (P32297 32-505): as the sequence (P32297 32-505 limits assumed) above
Sequence of α3β4 nAChRs (P30926 22-498): as the sequence (P30926 22-498 limits assumed) above

O=c1cccc2n1C[C@@H]1CNC[C@H]2C1 [Cytisine, cytisine] was tested, and the “Relative efficacy (ACh)” value ((α4)3(β2)2 nAChRs) was 0.19 ± 0.07, the Ki (Rat α7) was 662 nM and the Ki (Human α7) was 691 nM. The “Relative efficacy (ACh)” value (α3β4 nAChRs) was 0.54 ± 0.01, the “Relative efficacy (ACh)” value ((α4)2(β2)3 nAChRs) was 0.02 ± 0.001 and the Ki (α4β2 nAChR; human α4β2 in HEK 293, 0.25 nM [3H]-epibatidine, range printed after the value) was 1.27 nM. For the same molecule, the “Ratio α3β4/α4β2” value (α4β2 nAChR; ratio of Ki values) was 81.1 and the Ki (α3β4 nAChR) was 103 nM.
